Values belong to the compound of their own block, whether it stands above or below them.
Experiments:
[1] = molecular target: Glycogen synthase kinase-3 beta (Homo sapiens, UniProt P49841); assay: Inhibition of GSK3beta (unknown origin)
[2] = Selectivity ratio of CC50 for mouse R7T1 cells to ECmin for mouse pancreatic islet cells; type: toxicity; details: R7T1 cells (CC50) and pancreatic islet cells (ECmin)
[3] = Synergistic […] activity against human Pancreatic beta cell proliferation in presence of GLP1 at 5 nM by Ki-67 immuno labelling assay; type: functional
[4] = Synergistic […] activity against human Pancreatic beta cell proliferation in NSG mouse model at 0.5 ug/kg by immuno labelling assay; type: functional
[5] = Cytotoxicity against mouse R7T1 cells assessed as reduction in cell viability; type: functional
[6] = Induction of human Pancreatic beta cell proliferation at 50 mg/kg measured after 5 days in presence of EdU incorporation by Cell-Titer Glo assay; type: functional; details: 120 h
[7] = Induction of rat Pancreatic beta cell proliferation at 1 uM assessed as increase in fold chain after 6 days in presence of EdU incorporation by Cell-Titer Glo assay; type: functional; details: time 6 day
[8] = Volume of distribution at steady state in mouse, po; type: ADME; details: in vivo
[9] = AUC (0 to infinity) in mouse at 1 mg/kg, po; type: ADME, organism-based; design: dose 1 mg/kg, route po; details: in vivo
[10] = molecular target: Dual specificity protein kinase CLK1/CLK2/CLK4 (Homo sapiens) (UniProt Q9HAZ1+P49759+P49760); assay: Inhibition of CLK1/2/4 (unknown origin) relative to control; type: protein assay; details: concentration not given here
Chain of Dual specificity protein kinase CLK1/CLK2/CLK4 (Homo sapiens) (P49759 whole entry, looked up): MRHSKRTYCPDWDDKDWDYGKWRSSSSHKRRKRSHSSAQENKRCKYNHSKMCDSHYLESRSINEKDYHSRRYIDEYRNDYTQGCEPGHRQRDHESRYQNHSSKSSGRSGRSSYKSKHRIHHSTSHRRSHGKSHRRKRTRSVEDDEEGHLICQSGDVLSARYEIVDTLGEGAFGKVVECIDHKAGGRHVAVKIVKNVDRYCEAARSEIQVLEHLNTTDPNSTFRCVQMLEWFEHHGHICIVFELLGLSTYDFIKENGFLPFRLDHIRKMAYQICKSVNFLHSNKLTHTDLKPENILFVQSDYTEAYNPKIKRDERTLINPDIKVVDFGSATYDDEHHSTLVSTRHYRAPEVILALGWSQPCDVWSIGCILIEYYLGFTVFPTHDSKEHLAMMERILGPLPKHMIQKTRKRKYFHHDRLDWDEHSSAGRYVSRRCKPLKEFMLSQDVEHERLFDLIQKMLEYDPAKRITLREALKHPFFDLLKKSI
Chain of Dual specificity protein kinase CLK1/CLK2/CLK4 (Homo sapiens) (P49760 whole entry, looked up): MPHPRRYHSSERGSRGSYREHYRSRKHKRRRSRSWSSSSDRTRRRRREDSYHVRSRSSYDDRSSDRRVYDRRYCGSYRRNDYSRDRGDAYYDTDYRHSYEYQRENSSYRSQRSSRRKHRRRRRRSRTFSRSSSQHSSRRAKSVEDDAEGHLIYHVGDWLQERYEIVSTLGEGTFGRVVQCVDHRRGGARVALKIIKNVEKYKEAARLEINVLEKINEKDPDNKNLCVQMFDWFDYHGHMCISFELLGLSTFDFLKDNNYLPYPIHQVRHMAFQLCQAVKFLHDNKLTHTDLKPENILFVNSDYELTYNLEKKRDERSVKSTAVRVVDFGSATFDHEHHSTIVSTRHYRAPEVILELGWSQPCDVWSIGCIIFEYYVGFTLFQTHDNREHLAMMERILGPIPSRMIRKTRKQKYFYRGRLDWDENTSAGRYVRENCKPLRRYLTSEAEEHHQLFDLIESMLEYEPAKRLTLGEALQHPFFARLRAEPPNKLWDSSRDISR
Chain of Dual specificity protein kinase CLK1/CLK2/CLK4 (Homo sapiens) (Q9HAZ1 whole entry, looked up): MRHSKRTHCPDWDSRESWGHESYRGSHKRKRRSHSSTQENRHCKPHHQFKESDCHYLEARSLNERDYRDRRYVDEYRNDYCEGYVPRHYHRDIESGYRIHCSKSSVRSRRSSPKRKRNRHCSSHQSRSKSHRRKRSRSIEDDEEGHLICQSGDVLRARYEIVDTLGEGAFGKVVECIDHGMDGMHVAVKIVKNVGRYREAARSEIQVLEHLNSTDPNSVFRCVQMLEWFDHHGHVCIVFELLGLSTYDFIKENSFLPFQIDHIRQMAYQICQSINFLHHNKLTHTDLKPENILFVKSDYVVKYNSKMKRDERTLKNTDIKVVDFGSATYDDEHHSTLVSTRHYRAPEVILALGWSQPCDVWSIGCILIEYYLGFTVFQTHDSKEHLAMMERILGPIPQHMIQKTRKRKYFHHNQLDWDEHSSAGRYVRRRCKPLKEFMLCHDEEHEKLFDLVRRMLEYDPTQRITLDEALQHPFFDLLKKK

Chain of Glycogen synthase kinase-3 beta (P49841 whole entry): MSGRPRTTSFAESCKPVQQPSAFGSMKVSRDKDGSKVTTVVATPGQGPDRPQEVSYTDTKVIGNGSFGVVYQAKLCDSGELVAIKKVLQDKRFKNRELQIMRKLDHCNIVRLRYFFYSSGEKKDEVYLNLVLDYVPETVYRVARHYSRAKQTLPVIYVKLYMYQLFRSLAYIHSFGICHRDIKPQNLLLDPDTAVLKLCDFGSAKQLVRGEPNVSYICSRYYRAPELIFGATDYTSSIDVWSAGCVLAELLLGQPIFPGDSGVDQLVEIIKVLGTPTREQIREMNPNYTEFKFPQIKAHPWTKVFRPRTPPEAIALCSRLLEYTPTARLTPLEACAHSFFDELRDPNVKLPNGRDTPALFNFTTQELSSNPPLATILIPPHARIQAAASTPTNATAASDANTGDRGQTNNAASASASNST

IC50 [1]: > 8300 nM
Structure (SMILES): COc1ccc2c(c1)[nH]c1c(CO)nccc12

Structure (SMILES): CCOC(=O)c1cnc2ccc(-c3ccncc3)nc2c1N[C@H]1CC[C@H](CN(C)C)CC1
selectivity ratio [2]: 259

Structure (SMILES): COc1ccc2c(c1)[nH]c1c(C)nccc12 [HARMINE]
Activity [3]: 5%
Activity [4]: 0.8%

Structure (SMILES): CC(C)Oc1ccc(F)c(-c2cnc(N)c(C(=O)Nc3cnccc3N3CCCC(C(=O)O)C3)n2)c1 (centres undefined)
Emin [5]: <100 nM

Structure (SMILES): Nc1ncc(-c2ccccc2)nc1C(=O)Nc1cnccc1N1CCC(C(=O)O)CC1
EC50 [6]: 0.76 nM

Structure (SMILES): Nc1ncnc2c1c(I)cn2[C@@H]1O[C@H](CO)[C@@H](O)[C@H]1O [IODOTUBERCIDIN]
fold change (FC) [7]: 10

Vdss [8]: 11 L/kg
AUC [9]: 3.27 µM·h
inhibition [10]: 90%
Structure (SMILES): CCN1CCN(C(=O)Nc2cc(-c3cn(C4CCOCC4)c4cnccc34)ccn2)CC1

Structure (SMILES): CCOC(=O)c1cnc2ccc(-c3cc(Cl)c(O)c(Cl)c3)nc2c1NC1CCN(C)CC1
Emin [5]: 10 nM
selectivity ratio [2]: 117

Structure (SMILES): CCOC(=O)c1cnc2ccc(-c3ccncc3)nc2c1N[C@H]1CC[C@H](CN2CCOCC2)CC1
Emin [5]: 3.3 nM
selectivity ratio [2]: 143

Reference: ChEMBL document CHEMBL5233270, “DYRK1A Inhibitors as Potential Therapeutics for β-Cell Regeneration for Diabetes” (J Med Chem, 2021)
